From US8163756B2 (priority 2004, dated 2012) come the findings set out here.

As usually defined, the inhibition is the relative decrease from the control value, in per cent.

Holding throughout (type): biochemical
The target in experiment [1] is B-Raf(V599E) kinase (Homo sapiens, UniProt P15056, V600E). Description: B-Raf(V599E) kinase assay B1 (construct 1, MEK1 substrate, coupled spectrophotometric). As for the experimental part: The test compounds were incubated with the reaction mixtureat 30° C. for 2 h. […] The reaction rate was calculated using the […] time frame. […] IC50 values were calculated from a series of percent inhibition values determined at a range of inhibitor concentrations using software routines as implemented in the GraphPad Prism software package.
Chain of B-Raf(V599E) kinase (P15056 with tags, fused parts or gaps V600E): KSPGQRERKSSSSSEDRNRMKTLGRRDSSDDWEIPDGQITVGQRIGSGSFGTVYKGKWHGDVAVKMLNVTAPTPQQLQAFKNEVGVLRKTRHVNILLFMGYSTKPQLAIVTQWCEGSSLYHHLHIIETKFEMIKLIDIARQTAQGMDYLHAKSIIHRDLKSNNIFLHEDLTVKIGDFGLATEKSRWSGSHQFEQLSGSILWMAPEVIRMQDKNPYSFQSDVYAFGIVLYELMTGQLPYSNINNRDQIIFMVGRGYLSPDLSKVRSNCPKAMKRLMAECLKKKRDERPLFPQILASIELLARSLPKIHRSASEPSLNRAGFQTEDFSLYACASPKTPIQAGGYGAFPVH

Experiment [2] has as its target KDR kinase (Homo sapiens, UniProt P35968, DEL940-989/E990V). In words: KDR kinase assay K1 (pyruvate kinase/lactate dehydrogenase coupled, spectrophotometric). The conditions noted are these: Method K1; read-out: KDR Data (IC50). As for the experimental part: (§1) IC50 values were calculated from a series of percent inhibition values determined at a range of inhibitor concentrations using software routines as implemented in the GraphPad Prism software package.

Experiment [3] addresses T1, Abl kinase (Homo sapiens, UniProt P00519).
T1 sequence (P00519 229-512): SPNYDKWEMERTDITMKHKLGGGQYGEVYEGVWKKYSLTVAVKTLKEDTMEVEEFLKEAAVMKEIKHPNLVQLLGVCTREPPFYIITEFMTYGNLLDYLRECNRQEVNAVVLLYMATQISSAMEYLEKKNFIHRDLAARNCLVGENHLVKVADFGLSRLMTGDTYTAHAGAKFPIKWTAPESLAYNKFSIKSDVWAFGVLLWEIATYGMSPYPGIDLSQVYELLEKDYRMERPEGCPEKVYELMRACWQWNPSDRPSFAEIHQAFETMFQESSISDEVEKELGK
Description: Abl kinase assay A1 (pyruvate kinase/lactate dehydrogenase coupled, spectrophotometric). To be noted: Method A1; for IC50: read-out: Abl Data (IC50). As for the experimental part: as §1

Experiment [4] concerns the target phosphorylated p-38-alpha kinase (Homo sapiens, UniProt Q16539). In words: P-38 alpha kinase assay P1 (coupled spectrophotometric, 2 h pre-incubation). The conditions noted are these: method P1 (2 h pre-incubation); read-out: P-38 Data.

Chain of KDR kinase (P35968 with tags, fused parts or gaps DEL940-989/E990V): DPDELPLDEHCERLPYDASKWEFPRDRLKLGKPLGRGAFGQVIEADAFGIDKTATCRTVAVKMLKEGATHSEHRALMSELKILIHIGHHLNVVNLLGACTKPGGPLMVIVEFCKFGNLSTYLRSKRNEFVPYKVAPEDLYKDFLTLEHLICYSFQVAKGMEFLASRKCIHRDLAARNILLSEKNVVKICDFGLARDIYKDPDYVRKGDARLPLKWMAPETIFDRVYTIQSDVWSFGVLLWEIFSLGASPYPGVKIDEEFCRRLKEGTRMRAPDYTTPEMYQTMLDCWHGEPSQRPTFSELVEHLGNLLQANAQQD
Chain of phosphorylated p-38-alpha kinase (Q16539 1-360 isoform Q16539-2): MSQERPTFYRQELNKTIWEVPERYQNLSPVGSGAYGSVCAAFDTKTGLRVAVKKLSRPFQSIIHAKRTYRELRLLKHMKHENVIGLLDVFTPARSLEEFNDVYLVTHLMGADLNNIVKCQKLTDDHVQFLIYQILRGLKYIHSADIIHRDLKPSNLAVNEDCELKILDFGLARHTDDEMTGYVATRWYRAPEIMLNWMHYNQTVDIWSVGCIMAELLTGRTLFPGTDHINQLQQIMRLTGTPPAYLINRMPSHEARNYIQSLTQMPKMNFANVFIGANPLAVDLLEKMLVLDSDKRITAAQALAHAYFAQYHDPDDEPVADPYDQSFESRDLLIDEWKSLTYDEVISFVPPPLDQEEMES

On to `CC(C)(C)c1cc(NC(=O)Nc2ccsc2)n(-c2ccc3c(c2)CCC(=O)N3)n1` [Example 316, 1-(3-t-butyl-1-(2-oxo-1,2,3,4-tetrahydro-quinolin-6-yl)-1H-pyrazol-5-yl)-3-(thiophen-3-yl)urea], for which the IC50 was 66 nM in experiment [1] and 12900 nM in experiment [2].
Take `CC(C)(C)c1cc(NC(=O)Nc2ccc(Cl)cc2)n(-c2cc(CN)c3ccccc3c2)n1` [Example 68, 1-[1-(4-(aminomethyl)naphthalen-2-yl)-3-t-butyl-1H-pyrazol-5-yl]-3-(4-chlorophenyl)urea]: the IC50 in experiment [1] came out at 24 nM; in experiment [2], 1400 nM.
On the same counts, the results for `CC(C)(C)c1cc(NC(=O)Nc2ccccc2)n(-c2ccc3ncccc3c2)n1` [Example 282, 1-[3-t-butyl-1-(quinolin-6-yl)-1H-pyrazol-5-yl]-3-phenylurea] are 41 nM and 2400 nM.
On the same counts, the results for `CC(C)(C)c1cc(NC(=O)Nc2cccc(Cl)c2)n(-c2cccc(CN)c2)n1` [Example 227, 1-{1-[3-(aminomethyl)phenyl]-3-t-butyl-1H-pyrazol-5-yl}-3-(3-chloro-phenyl)urea] are 61 nM and 9300 nM.
In the case of `CC(C)(C)c1cc(NC(=O)Nc2cc(F)cc(F)c2F)n(-c2cc(CNC(N)=O)c3ccccc3c2)n1` [Example 296], the IC50 turned out to be 3 nM in experiment [1] and 200 nM in experiment [2].
For the molecule `CC(C)(C)c1cc(NC(=O)NC2CCCCC2)n(-c2ccc3c(c2)CCC(=O)N3)n1` [Example 318, 1-(3-t-butyl-1-(2-oxo-1,2,3,4-tetrahydroquinolin-6-yl)-1H-pyrazol-5-yl)-3-cyclohexylurea], the IC50 in experiment [1] is 29 nM; in experiment [2], 10100 nM.
With `CC(C)(C)c1cc(NC(=O)Nc2cccc(C#N)c2)n(-c2ccc3c(c2)NCC3)n1` [Example 114, 1-(3-t-butyl-1-(indolin-6-yl)-1H-pyrazol-5-yl)-3-(3-cyanophenyl)urea], the IC50 was determined as 640 nM in experiment [3] and 115 nM in experiment [1].
On the same counts, the results for `CC(C)(C)c1cc(NC(=O)Nc2cccc(Cl)c2Cl)n(-c2ccc3c(c2)C(=O)CC3)n1` [Example 102, 1-[5-t-butyl-2-(3-oxo-indan-5-yl)-2H-pyrazol-3-yl]-3-(2,3-dichlorophenyl)urea] are 110 nM and 2.5 nM.
For `CC(C)(C)c1cc(NC(=O)Nc2ccc3c(c2)OCO3)n(-c2cccc(C#N)c2)n1` [Example 6, 1-(benzo[d][1,3]dioxol-5-yl)-3-(3-t-butyl-1-(3-cyanophenyl)-1H-pyrazol-5-yl)urea], the IC50 was 3000 nM in experiment [3] and 180 nM in experiment [1].
Turning to `CC(C)(C)c1cc(NC(=O)Nc2cc(F)c(F)cc2F)n(-c2cccc(C(=N)N)c2)n1` [Example 214, 1-(3-t-butyl-1-(3-carbamimidoylphenyl)-1H-pyrazol-5-yl)-3-(2,4,5-trifluorophenyl)urea], the IC50 in experiment [2] was 840 nM.
`CC(=O)c1cc(-n2nc(C(C)(C)C)cc2NC(=O)Nc2cccc(Cl)c2Cl)cc2ccccc12` [Example 100, 1-(1-(4-acetylnaphthalen-2-yl)-3-t-butyl-1H-pyrazol-5-yl)-3-(2,3-dichlorophenyl)urea]: the IC50 stood at 5 nM in experiment [4], 150 nM in experiment [3] and 6.9 nM in experiment [1].
In the case of `CC(C)(C)c1cc(NC(=O)Nc2ccc(F)cc2F)n(-c2ccc3c(c2)CCNC3)n1` [Example 145, 1-(3-t-butyl-1-(1,2,3,4-tetrahydroiso-quinolin-6-yl)-1H-pyrazol-5-yl)-3-(2,4-difluorophenyl)-urea], the IC50 in experiment [3] was determined as 410 nM; in experiment [1] it was 13 nM.
On the same counts, the results for `CC(C)(C)c1cc(NC(=O)Nc2ccc(F)cc2F)n(-c2cc(CC(N)=O)c3ccccc3c2)n1` [Example 82, 1-(1-(4-(2-amino-2-oxoethyl)naphthalen-2-yl)-3-t-butyl-1H-pyrazol-5-yl)-3-(2,4-difluorophenyl)urea] are 360 nM and 5.9 nM.
The corresponding values for `CC(C)(C)c1cc(NC(=O)Nc2ccc(F)cc2)n(-c2cc(CC(N)=O)c3ccccc3c2)n1` [Example 84, 1-(1-(4-(2-amino-2-oxoethyl)naphthalen-2-yl)-3-t-butyl-1H-pyrazol-5-yl)-3-(4-fluorophenyl)urea] are 390 nM and 11 nM.
On the same counts, the results for `CC(C)(C)c1cc(NC(=O)Nc2ccc(Cl)cc2)n(-c2ccc3c(c2)CNCC3)n1` [Example 124, 1-[3-t-butyl-1-(1,2,3,4-tetrahydroisoquinolin-7-yl)-1H-pyrazol-5-yl]-3-(4-chloro-phenyl)urea] are 1400 nM and 173 nM.
With `COc1cccc(-n2nc(C(C)(C)C)cc2NC(=O)Nc2cc(Cl)cc(Cl)c2)c1` [Example 14, 1-(3-t-butyl-1-(3-methoxyphenyl)-1H-pyrazol-5-yl)-3-(3,5-dichlorophenyl)urea], the values for the IC50 in experiment [3] and in experiment [1] were 2400 nM and 70 nM, respectively.
As for `CC(C)(C)c1cc(NC(=O)Nc2cc(F)cc(F)c2)n(-c2cc(CC(N)=O)c3ccccc3c2)n1` [Example 83, 1-(1-(4-(2-amino-2-oxoethyl)naphthalen-2-yl)-3-t-butyl-1H-pyrazol-5-yl)-3-(3,5-difluorophenyl)urea], the IC50 was 87 nM in experiment [3] and 8.5 nM in experiment [1].
On the same counts, the results for `CC(C)(C)c1cc(NC(=O)Nc2cc(F)c(F)cc2F)n(-c2cc(CO)c3ccccc3c2)n1` [Example 64, 1-(3-t-butyl-1-(4-(hydroxymethyl)naphthalen-2-yl)-1H-pyrazol-5-yl)-3-(2,4,5-trifluorophenyl)urea] are 63 nM and 3.3 nM.
As to `CC(C)(C)c1cc(NC(=O)Nc2cccc(Cl)c2Cl)n(-c2cccc(CC(=O)O)c2)n1` [Example 373, 2-(3-{3-t-butyl-5-[3-(2,3-dichlorophenyl)-ureido]-1H-pyrazol-1-yl}phenyl)acetic acid], the IC50 in experiment [3] was found to be 3500 nM; in experiment [1] it was 3.2 nM.
The corresponding values for `CC(C)(C)c1cc(NC(=O)Nc2cccc(Cl)c2Cl)n(-c2cc(CCN)c3ccccc3c2)n1` [Example 193, 1-(1-(4-(2-aminoethyl)naphthalen-2-yl)-3-t-butyl-1H-pyrazol-5-yl)-3-(2,3-dichlorophenyl)urea] are 81 nM and 2.6 nM.
The corresponding values for `CC(C)(C)c1cc(NC(=O)Nc2ccc(F)cc2F)n(-c2cc(CO)c3ccccc3c2)n1` [Example 63, 1-(3-t-butyl-1-(4-(hydroxylmethyl)naphthalen-2-yl)-1H-pyrazol-5-yl)-3-(2,4-difluorophenyl)urea] are 300 nM and 4 nM.
As to `CC(C)(C)c1cc(NC(=O)Nc2cccc(Cl)c2Cl)n(-c2ccc3[nH]c(=O)ccc3c2)n1` [Example 155, 1-(3-t-butyl-1-(2-oxo-1,2-dihydroquinolin-6-yl)-1H-pyrazol-5-yl)-3-(2,3-dichlorophenyl)-urea], the values for the IC50 in experiment [4], in experiment [3] and in experiment [1] were 110 nM, 260 nM and 1.4 nM, respectively.
Turning to `CC(C)(C)c1cc(NC(=O)Nc2cc(F)c(F)cc2F)n(-c2cccc(C#N)c2)n1` [Example 207, 1-(3-t-butyl-1-(3-cyanophenyl)-1H-pyrazol-5-yl)-3-(2,4,5-trifluorophenyl)urea], the IC50 in experiment [2] amounted to 340 nM.
For the molecule `CC(C)(C)c1cc(NC(=O)Nc2cccc(Cl)c2Cl)n(-c2cc(CC(N)=O)c3ccccc3c2)n1` [Example 78, 2-(3-{3-t-butyl-5-[3-(2,3-dichlorophenyl)ureido]pyrazol-1-yl}naphthalen-1-yl)acetamide], the results for the IC50 in experiment [3] and in experiment [1] were 72 nM and 3.5 nM, respectively.
Turning to `CC(C)(C)c1cc(NC(=O)Nc2cc(F)cc(F)c2F)n(-c2cc(CN)c3ccccc3c2)n1` [Example 70, 1-(1-(4-(aminomethyl)naphthalen-2-yl)-3-t-butyl-1H-pyrazol-5-yl)-3-(2,3,5-trifluorophenyl)urea], the IC50 was 50 nM in experiment [3] and 5 nM in experiment [1].
The corresponding values for `CC(C)(C)c1cc(NC(=O)Nc2ccc(F)c(F)c2F)n(-c2cc(CO)c3ccccc3c2)n1` [Example 62, 1-(3-t-butyl-1-(4-(hydroxylmethyl)naphthalen-2-yl)-1H-pyrazol-5-yl)-3-(2,3,4-trifluorophenyl)urea] are 110 nM and 3.2 nM.
As to `CC(C)(C)c1cc(NC(=O)Nc2cccc(Cl)c2Cl)n(-c2ccc3c(c2)C(O)CC3)n1` (stereo not shown) [Example 103, 1-[5-t-butyl-2-(3-hydroxy-indan-5-yl)-2H-pyrazol-3-yl]-3-(2,3-dichlorophenyl)urea], the IC50 was 240 nM in experiment [3] and 4.5 nM in experiment [1].
On the same counts, the results for `CC(C)(C)c1cc(NC(=O)Nc2ccc(F)c(F)c2F)n(-c2ccc3c(c2)CCNC3)n1` [Example 147, 1-(3-t-butyl-1-(1,2,3,4-tetrahydroiso-quinolin-6-yl)-1H-pyrazol-5-yl)-3-(2,3,4-trifluorophenyl)-urea] are 140 nM and 10 nM.
Regarding `CCOC(=O)Cc1cc(-n2nc(C(C)(C)C)cc2NC(=O)Nc2cccc(Cl)c2Cl)cc2ccccc12` [Example 76], in experiment [3] (@ 10 μM, read-out: Abl Data (percent inhibition)), the inhibition at 10 µM came to 31%. Besides, the IC50 in experiment [1] was found to be 11 nM.
